Experimental data taken from ChEMBL document CHEMBL1146125, “Ultra-potent P1 modified arylsulfonamide HIV protease inhibitors: the discovery of GW0385” (Bioorg Med Chem Lett, 2006).

Tests used:
MT4 [1] = experiment: Antiviral activity against HIV D545701 in MT4 cells; type: functional, cell-based; conditions: Homo sapiens
MT4 [2] = experiment: Antiviral activity against HIV1 EP13 in MT4 cells; type: functional, cell-based; conditions: Homo sapiens
MT4 [3] = experiment: Antiviral activity against HIV1 HXB2 in MT4 cells; type: functional, cell-based; conditions: Homo sapiens
[4] = Clearance in rat at 1 mg/kg, iv; type: ADME, organism-based; set-up: dose 1 mg/kg, route intravenous; conditions: in vivo
[5] = Oral bioavailability in rat at 1 mg/kg; type: ADME, organism-based; conditions: in vivo
[6] = Half life in rat at 1 mg/kg; type: ADME, organism-based; set-up: dose 1 mg/kg; conditions: in vivo
[7] = Clearance in dog at 1 mg/kg, iv; type: ADME, organism-based, Canis lupus familiaris; set-up: dose 1 mg/kg, route intravenous; conditions: in vivo
[8] = Half life in dog at 1 mg/kg; type: ADME, organism-based, Canis lupus familiaris; set-up: dose 1 mg/kg; conditions: in vivo
[9] = Oral bioavailability in dog at 1 mg/kg; type: ADME, organism-based, Canis lupus familiaris; conditions: in vivo
MT4 [10] = experiment: Antiviral activity against HIV1 I54V in MT4 cells; type: functional, cell-based; conditions: Homo sapiens
[11] = Bioavailability in rat at 1 mg/kg co-administered with 4 mg/kg ritonavir; type: ADME, organism-based; conditions: in vivo
MT4 [12] = experiment: Antiviral activity against nelfinavir resistant HIV1 14330 in MT4 cells; type: functional, cell-based; conditions: Homo sapiens
MT4 [13] = experiment: Antiviral activity against indinavir resistant HIV1 30813 in MT4 cells; type: functional, cell-based; conditions: Homo sapiens
[14] = Bioavailability in dog at 1 mg/kg co-administered with 4 mg/kg ritonavir; type: ADME, organism-based, Canis lupus familiaris; conditions: in vivo
MT4 [15] = experiment: Antiviral activity against multi PI resistant HIV1 EP14 in MT4 cells; type: functional, cell-based; conditions: Homo sapiens
MT4 [16] = experiment: Antiviral activity against multi PI resistant HIV1 31246 in MT4 cells; type: functional, cell-based; conditions: Homo sapiens
MT4 [17] = experiment: Antiviral activity against triple multi PI resistant HIV1 in MT4 cells; type: functional, cell-based; conditions: Homo sapiens
MT4 [18] = experiment: Antiviral activity against HIV1 I50V in MT4 cells; type: functional, cell-based; conditions: Homo sapiens
[19] = Half life in rat at 1 mg/kg co-administered with 4 mg/kg ritonavir; type: ADME, organism-based; conditions: in vivo
[20] = Half life in dog at 1 mg/kg co-administered with 4 mg/kg ritonavir; type: ADME, organism-based, Canis lupus familiaris; conditions: in vivo
MT4 [21] = experiment: Antiviral activity against amprenavir resistant HIV1 468 in MT4 cells; type: functional, cell-based; conditions: Homo sapiens

Row | Structure (SMILES) | IC50 (MT4 [1]) | IC50 (MT4 [2]) | IC50 (MT4 [3]) | further results
1 | CC(C)(C)NC(=O)[C@@H]1C[C@@H]2CCCC[C@@H]2CN1C[C@@H](O)[C@H](Cc1ccccc1)NC(=O)[C@H](CC(N)=O)NC(=O)c1ccc2ccccc2n1 | 603 nM | 80 nM | 60 nM | 
2 | CC(C)CN(C[C@@H](O)[C@H](Cc1ccccc1)NC(=O)O[C@H]1CCOC1)S(=O)(=O)c1ccc(N)cc1 | > 1000 nM |  |  | 
3 | CC(C)CN(C[C@@H](O)[C@H](Cc1ccccc1)NC(=O)O[C@H]1CO[C@H]2OCC[C@H]21)S(=O)(=O)c1ccc(N)cc1 | 32 nM | 6.8 nM | 3.9 nM | 
4 | COC(=O)NCc1ccc(Oc2ccc(C[C@H](NC(=O)O[C@H]3CO[C@H]4OCC[C@H]43)[C@H](O)CN(CC(C)C)S(=O)(=O)c3ccc4c(c3)OCO4)cc2)cc1 | 6.8 nM | 2.2 nM | 1.3 nM | 
5 | CC(C)CN(C[C@@H](O)[C@H](Cc1ccc(OCc2ccc3ccccc3c2)cc1)NC(=O)O[C@H]1CO[C@H]2OCC[C@H]21)S(=O)(=O)c1ccc2c(c1)OCO2 | 59 nM | 30 nM | 11 nM | 
6 | COc1cccc(Oc2ccc(C[C@H](NC(=O)O[C@H]3CO[C@H]4OCC[C@H]43)[C@H](O)CN(CC(C)C)S(=O)(=O)c3ccc4c(c3)OCO4)cc2)c1 | 41 nM | 16 nM | 4.7 nM | 
7 | CC(C)CN(C[C@@H](O)[C@H](Cc1ccc(Oc2ccncn2)cc1)NC(=O)O[C@H]1CO[C@H]2OCC[C@H]21)S(=O)(=O)c1ccc2c(c1)OCO2 | 11 nM | 2.8 nM | 2 nM | 
8 | CC(C)CN(C[C@@H](O)[C@H](Cc1ccc(Oc2cccnc2)cc1)NC(=O)O[C@H]1CO[C@H]2OCC[C@H]21)S(=O)(=O)c1ccc2c(c1)OCO2 | 9.5 nM | 2.4 nM | 1.1 nM | 
9 | CC(=O)NCc1ccc(Oc2ccc(C[C@H](NC(=O)O[C@H]3CO[C@H]4OCC[C@H]43)[C@H](O)CN(CC(C)C)S(=O)(=O)c3ccc4c(c3)OCO4)cc2)cc1 | 6.3 nM | 3.4 nM | 6.2 nM | 
10 | CC(C)CN(C[C@@H](O)[C@H](Cc1ccc(OCc2ncc[nH]2)cc1)NC(=O)O[C@H]1CO[C@H]2OCC[C@H]21)S(=O)(=O)c1ccc2c(c1)OCO2 | 16 nM | 20 nM | 69 nM | 
11 | CC(C)CN(C[C@@H](O)[C@H](Cc1ccc(Oc2ccc(CN3CCOCC3)cc2)cc1)NC(=O)O[C@H]1CO[C@H]2OCC[C@H]21)S(=O)(=O)c1ccc2c(c1)OCO2 | 13 nM | 2.9 nM | 1.2 nM | 
12 | CC(C)CN(C[C@@H](O)[C@H](Cc1ccc(OCCc2ccccc2)cc1)NC(=O)O[C@H]1CO[C@H]2OCC[C@H]21)S(=O)(=O)c1ccc2c(c1)OCO2 | 25 nM | 8.7 nM | 3.7 nM | 
13 | CC(C)CN(C[C@@H](O)[C@H](Cc1ccc(OCCc2ccsc2)cc1)NC(=O)O[C@H]1CO[C@H]2OCC[C@H]21)S(=O)(=O)c1ccc2c(c1)OCO2 | 44 nM | 17 nM | 9.5 nM | 
14 | CC(C)CN(C[C@@H](O)[C@H](Cc1ccc(OCc2nccs2)cc1)NC(=O)O[C@H]1CO[C@H]2OCC[C@H]21)S(=O)(=O)c1ccc2c(c1)OCO2 | 5.1 nM | 1.5 nM | 0.9 nM | 
15 | CC(C)CN(C[C@@H](O)[C@H](Cc1ccc(Oc2ccc(CNS(C)(=O)=O)cc2)cc1)NC(=O)O[C@H]1CO[C@H]2OCC[C@H]21)S(=O)(=O)c1ccc2c(c1)OCO2 | 11 nM | 5.3 nM | 7.2 nM | 
16 | CC(C)CN(C[C@@H](O)[C@H](Cc1ccc(OCc2ccccn2)cc1)NC(=O)O[C@H]1CO[C@H]2OCC[C@H]21)S(=O)(=O)c1ccc2c(c1)OCO2 | 4.5 nM | 1.2 nM | 1.2 nM | clearance [4]: 20 mL/min/kg; bioavailability [5]: 21%; half-life [6]: 0.91 h
17 | CC(C)CN(C[C@@H](O)[C@H](Cc1ccc(Oc2ccc(CN3CCCC3)cc2)cc1)NC(=O)O[C@H]1CO[C@H]2OCC[C@H]21)S(=O)(=O)c1ccc2c(c1)OCO2 | 19 nM | 4.6 nM | 2.8 nM | 

Row | Structure (SMILES) | IC50 (MT4 [1]) | IC50 (MT4 [2]) | IC50 (MT4 [3]) | further results
18 | CC(C)CN(C[C@@H](O)[C@H](Cc1ccc(OCCc2cccs2)cc1)NC(=O)O[C@H]1CO[C@H]2OCC[C@H]21)S(=O)(=O)c1ccc2c(c1)OCO2 | 11 nM | 3.4 nM | 2.3 nM | clearance [4]: 27 mL/min/kg; clearance [7]: 22 mL/min/kg; bioavailability [5]: 15%; half-life [6]: 2.2 h; half-life [8]: 0.5 h; bioavailability [9]: 18%
19 | CC(C)CN(C[C@@H](O)[C@H](Cc1ccc(OCc2ccccc2)cc1)NC(=O)O[C@H]1CO[C@H]2OCC[C@H]21)S(=O)(=O)c1ccc2c(c1)OCO2 | 9.6 nM | 5.9 nM | 3.1 nM | 
20 | CC(C)CN(C[C@@H](O)[C@H](Cc1ccc(OCc2ccc3ccccc3n2)cc1)NC(=O)O[C@H]1CO[C@H]2OCC[C@H]21)S(=O)(=O)c1ccc2c(c1)OCO2 | 19 nM | 5.2 nM | 2.5 nM | 
21 | CC(C)CN(C[C@@H](O)[C@H](Cc1ccc(OCCn2cncn2)cc1)NC(=O)O[C@H]1CO[C@H]2OCC[C@H]21)S(=O)(=O)c1ccc2c(c1)OCO2 | 12 nM | 8.3 nM | 21 nM | 
22 | CC(C)CN(C[C@@H](O)[C@H](Cc1ccc(OCc2cncs2)cc1)NC(=O)O[C@H]1CO[C@H]2OCC[C@H]21)S(=O)(=O)c1ccc2c(c1)OCO2 | 6.5 nM | 2.5 nM | 1.9 nM | 
23 | CC(C)CN(C[C@@H](O)[C@H](Cc1ccc(Oc2ccc(F)cc2)cc1)NC(=O)O[C@H]1CO[C@H]2OCC[C@H]21)S(=O)(=O)c1ccc2c(c1)OCO2 | 29 nM | 8.1 nM | 3.3 nM | 
24 | CC(C)CN(C[C@@H](O)[C@H](Cc1ccc(OCc2cccc(C#N)c2)cc1)NC(=O)O[C@H]1CO[C@H]2OCC[C@H]21)S(=O)(=O)c1ccc2c(c1)OCO2 | 2.2 nM | 2.2 nM | 1.2 nM | 
25 | CC(C)CN(C[C@@H](O)[C@H](Cc1ccc(Oc2ccc(CO)cc2)cc1)NC(=O)O[C@H]1CO[C@H]2OCC[C@H]21)S(=O)(=O)c1ccc2c(c1)OCO2 | 8.4 nM | 1.6 nM | 1.6 nM | 
26 | CC(C)CN(C[C@@H](O)[C@H](Cc1ccc(Oc2ccccc2)cc1)NC(=O)O[C@H]1CO[C@H]2OCC[C@H]21)S(=O)(=O)c1ccc2c(c1)OCO2 | 62 nM | 21 nM | 7.5 nM | 
27 | CC(C)CN(C[C@@H](O)[C@H](Cc1ccc(Oc2cccc(F)c2)cc1)NC(=O)O[C@H]1CO[C@H]2OCC[C@H]21)S(=O)(=O)c1ccc2c(c1)OCO2 | 48 nM | 17 nM | 5.7 nM | 
28 | COc1ccc(Oc2ccc(C[C@H](NC(=O)O[C@H]3CO[C@H]4OCC[C@H]43)[C@H](O)CN(CC(C)C)S(=O)(=O)c3ccc4c(c3)OCO4)cc2)cc1 | 27 nM | 6.9 nM | 2.1 nM | 
29 | CC(C)CN(C[C@@H](O)[C@H](Cc1ccc(OCc2cscn2)cc1)NC(=O)O[C@H]1CO[C@H]2OCC[C@H]21)S(=O)(=O)c1ccc2c(c1)OCO2 | 3.5 nM | 1.2 nM | 0.6 nM | 
30 | Cc1c(O)cccc1C(=O)N[C@@H](CSc1ccccc1)[C@H](O)CN1C[C@H]2CCCC[C@H]2C[C@H]1C(=O)NC(C)(C)C | > 1000 nM |  |  | 
31 | COC(=O)N[C@H](C(=O)N[C@@H](Cc1ccccc1)[C@@H](O)CN(Cc1ccc(-c2ccccn2)cc1)NC(=O)[C@@H](NC(=O)OC)C(C)(C)C)C(C)(C)C [ATAZANAVIR] | 70 nM | 93 nM | 25 nM | 
32 | Cc1nc(COc2ccc(C[C@H](NC(=O)O[C@H]3CO[C@H]4OCC[C@H]43)[C@H](O)CN(CC(C)C)S(=O)(=O)c3ccc4c(c3)OCO4)cc2)cs1 [BRECANAVIR] |  | 1.1 nM |  | IC50 (MT4 [10]): 0.22 nM; bioavailability [11]: 62%; IC50 (MT4 [12]): 0.45 nM; clearance [4]: 10 mL/min/kg; clearance [7]: 19 mL/min/kg; IC50 (MT4 [13]): 0.46 nM; bioavailability [14]: 86%; IC50 (MT4 [15]): 0.77 nM; IC50 (MT4 [16]): 1.7 nM; IC50 (MT4 [17]): 5.4 nM; bioavailability [5]: 10%; half-life [6]: 1.4 h; half-life [8]: 0.87 h; IC50 (MT4 [18]): 1.6 nM; half-life [19]: 1.1 h; half-life [20]: 1.2 h; IC50 (MT4 [21]): 8.2 nM; bioavailability [9]: 20%
33 | Cc1cccc(C)c1OCC(=O)N[C@@H](Cc1ccccc1)[C@@H](O)C[C@H](Cc1ccccc1)NC(=O)[C@H](C(C)C)N1CCCNC1=O [LOPINAVIR] | > 1000 nM | 400 nM | 40 nM | 
34 | CC(C)c1nc(CN(C)C(=O)N[C@H](C(=O)N[C@@H](Cc2ccccc2)C[C@H](O)[C@H](Cc2ccccc2)NC(=O)OCc2cncs2)C(C)C)cs1 [RITONAVIR] | > 1000 nM | > 1000 nM | 268 nM | 
